Measured values published in patent USRE48097E1, “Cephem compounds, their production and use” (priority 2015, dated 2020).
In brackets after ≈: the same amount, converted by molar mass. Where two headings read alike, the source gives them in different places. Values belong to the compound of their own block, whether it stands above or below them.

Legend:
S. aureus3137 = experiment: MIC against S. aureus3137; format: cell-based, S. aureus; conditions: Table 2, S. aureus3137, MSSA
Text: (§1) Without limitation, the present cephem compounds alone, or in combination with one or more β-lactamase inhibitors, may provide improved antibacterial efficacy, particularly in antibiotic-resistant bacterial strains. It is believed that the present compounds may be structurally different from known compounds and, as a result, may be more basic in nature. It is an advantage that the present compounds may extend the spectrum of effective bacterial compounds, particularly against previously-resistant bacteria (e.g. ESKAPE organisms), and/or gram negative bacteria, without significant side effects. In a preferred embodiment, the present cephem compound may comprise reference compound ceftazidime, which may be used alone, or in combination with one or more β-lactamase inhibitors, such as NXL-104. As shown, the foregoing composition was tested for minimum inhibitory concentration (MIC, μg/mL) against bacteria listed in Tables 2-3.

S. aureus 3144 = experiment: MIC against S. aureus 3144; format: cell-based; conditions: Table 2, S. aureus 3144, MSSA
Text: as §1

S. pneumoniae 2492 = experiment: MIC against S. pneumoniae 2492; format: cell-based; conditions: Table 2, S. pneumoniae 2492, Pen R
Text: as §1

S. pneumoniae 2406 = experiment: MIC against S. pneumoniae 2406; format: cell-based; conditions: Table 2, S. pneumoniae 2406, Pen S
Text: as §1

E. cloacae596 = experiment: MIC against E. cloacae596; format: cell-based, E. cloacae; conditions: Table 2, E. cloacae596, Caz R, IMP S
Text: as §1

E. cloacae 2044 = experiment: MIC against E. cloacae 2044; format: cell-based; conditions: Table 2, E. cloacae 2044, Caz S, IMP S
Text: as §1

C. freundii 15 = experiment: MIC against C. freundii 15; format: cell-based; conditions: Table 2, C. freundii 15, Caz R, IMP S
Text: as §1

K. pneumoniae 4104 = experiment: MIC against K. pneumoniae 4104; format: cell-based; conditions: K. pneumoniae 4104, KPC-3, TEM-1
Description: (§2) As shown, the foregoing composition was tested for minimum inhibitory concentration (MIC, μg/mL) against bacteria listed in Tables 2-3.

K. pneumoniae 4105 = experiment: MIC against K. pneumoniae 4105; format: cell-based; conditions: K. pneumoniae 4105, KPC-3, TEM-1, SHV-11
Description: as §2

K. pneumoniae 4108 = experiment: MIC against K. pneumoniae 4108; format: cell-based; conditions: K. pneumoniae 4108, KPC-3, TEM-166, SHV-12, SHV-141
Description: as §2

M. morganii 2409 = experiment: MIC against M. morganii 2409; format: cell-based; conditions: Table 2, M. morganii 2409, High level cephase, β-Lactamase producing
Text: as §1

K. pneumoniae 2689 = experiment: MIC against K. pneumoniae 2689; format: cell-based; conditions: K. pneumoniae 2689, KPC-2
Description: as §2

E. coli 2671 = experiment: MIC against E. coli 2671; format: cell-based; conditions: Table 2, E. coli 2671, VIM-19
Text: as §1

K. pneumoniae 2697 = experiment: MIC against K. pneumoniae 2697; format: cell-based; conditions: Table 2, K. pneumoniae 2697, IMP-4
Text: as §1

E. coli 4098 = experiment: MIC against E. coli 4098; format: cell-based; conditions: Table 2, E. coli 4098, CTX-M-15, TEM-1
Text: as §1

E. coli 4101 = experiment: MIC against E. coli 4101; format: cell-based; conditions: Table 2, E. coli 4101, CTX-M-14, TEM-1
Text: as §1

E. coli 102 = experiment: MIC against E. coli 102; format: cell-based; conditions: Table 2, E. coli 102, TEM-1
Text: as §1

K. baumanii 4094 = experiment: MIC against K. baumanii 4094; format: cell-based; conditions: Table 2, K. baumanii 4094, OXA-51
Text: as §1

P. aeruginosa 2573 = experiment: MIC against P. aeruginosa 2573; format: cell-based; conditions: Table 2, P. aeruginosa 2573, OXA-10 (Class D)
Text: as §1

E. cloacae 2705 = experiment: MIC against E. cloacae 2705; format: cell-based; conditions: Table 3, E. cloacae 2705, VIM-1, KPC-3type
Description: as §2

E. cloacae 2706 = experiment: MIC against E. cloacae 2706; format: cell-based; conditions: Table 3, E. cloacae 2706, VIM-1, KPC-3
Description: as §2

E. cloacae 2709 = experiment: MIC against E. cloacae 2709; format: cell-based; conditions: Table 3, E. cloacae 2709, KPC-3, VIM-1
Description: as §2

K. pneumoniae 2712 = experiment: MIC against K. pneumoniae 2712; format: cell-based; conditions: Table 3, K. pneumoniae 2712, KPC-3, VIM-1
Description: as §2

[1] = Table 2, in combination with NXL-104
[2] = Table 3, in combination with NXL-104
[3] = Staphylococcus aureus, alone, read-out: MIC
[4] = Streptococcus pneumoniae, alone, read-out: MIC
[5] = Enterobacter cloacae, alone, read-out: MIC
[6] = Escherichia coli, alone, read-out: MIC
[7] = Klebsiella pneumoniae, alone, read-out: MIC

- MIC (S. aureus3137; alone): 32.00 mg/L
- MIC (S. aureus3137; in combination with NXL-104): 32.00 mg/L
- MIC (S. aureus 3144; alone): 16.00 mg/L
- MIC (S. aureus 3144; in combination with NXL-104): 16.00 mg/L
- MIC (S. pneumoniae 2492; alone): 8.00 mg/L
- MIC (S. pneumoniae 2492; in combination with NXL-104): 8.00 mg/L
- MIC (S. pneumoniae 2406; alone): 0.12 mg/L
- MIC (S. pneumoniae 2406; in combination with NXL-104): 0.12 mg/L
- MIC (E. cloacae596; alone): 4.00 mg/L
- MIC (E. cloacae596; in combination with NXL-104): 1.00 mg/L
- MIC (E. cloacae 2044; alone): 1.00 mg/L
- MIC (E. cloacae 2044; in combination with NXL-104): 0.25 mg/L
- MIC (C. freundii 15; alone): 8.00 mg/L
- MIC (C. freundii 15; in combination with NXL-104): 2.00 mg/L
- MIC (K. pneumoniae 4104; Table 2, alone): 32.00 mg/L (≈ 58.5 µM)
- MIC (K. pneumoniae 4104; [1]): 8.00 mg/L
- MIC (K. pneumoniae 4104; Table 3, alone): >32 mg/L
- MIC (K. pneumoniae 4104; [2]): 2 mg/L
- MIC (K. pneumoniae 4105; Table 2, alone): 32.00 mg/L (≈ 58.5 µM)
- MIC (K. pneumoniae 4105; [1]): 4.00 mg/L
- MIC (K. pneumoniae 4105; Table 3, alone): >32 mg/L
- MIC (K. pneumoniae 4105; [2]): 4 mg/L
- MIC (K. pneumoniae 4108; Table 2, alone): 16.00 mg/L (≈ 29.3 µM)
- MIC (K. pneumoniae 4108; [1]): 4.00 mg/L
- MIC (K. pneumoniae 4108; Table 3, alone): >32 mg/L
- MIC (K. pneumoniae 4108; [2]): 4 mg/L
- MIC (M. morganii 2409; alone): 16.00 mg/L
- MIC (M. morganii 2409; in combination with NXL-104): 4.00 mg/L
- MIC (K. pneumoniae 2689; Table 2, alone): 32.00 mg/L (≈ 58.5 µM)
- MIC (K. pneumoniae 2689; [1]): 4.00 mg/L
- MIC (K. pneumoniae 2689; Table 3, alone): >32 mg/L
- MIC (K. pneumoniae 2689; [2]): 4 mg/L
- MIC (E. coli 2671; alone): 32.00 mg/L
- MIC (E. coli 2671; in combination with NXL-104): 32.00 mg/L
- MIC (K. pneumoniae 2697; alone): 8.00 mg/L
- MIC (K. pneumoniae 2697; in combination with NXL-104): 2.00 mg/L
- MIC (E. coli 4098; alone): 2.00 mg/L
- MIC (E. coli 4098; in combination with NXL-104): 0.50 mg/L
- MIC (E. coli 4101; alone): 0.50 mg/L
- MIC (E. coli 4101; in combination with NXL-104): 0.25 mg/L
- MIC (E. coli 102; alone): 0.12 mg/L
- MIC (E. coli 102; in combination with NXL-104): 0.12 mg/L
- MIC (K. baumanii 4094; alone): >32 mg/L
- MIC (K. baumanii 4094; in combination with NXL-104): 32.00 mg/L
- MIC (P. aeruginosa 2573; alone): 8.00 mg/L
- MIC (P. aeruginosa 2573; in combination with NXL-104): 8.00 mg/L
- MIC (E. cloacae 2705; alone): >32 mg/L
- MIC (E. cloacae 2705; in combination with NXL-104): >32 mg/L
- MIC (E. cloacae 2706; alone): >32 mg/L
- MIC (E. cloacae 2706; in combination with NXL-104): 32 mg/L
- MIC (E. cloacae 2709; alone): >32 mg/L
- MIC (E. cloacae 2709; in combination with NXL-104): 8 mg/L
- MIC (K. pneumoniae 2712; alone): >32 mg/L
- MIC (K. pneumoniae 2712; in combination with NXL-104): 16 mg/L
SMILES: CC(C)(O/N=C(\C(=O)N[C@@H]1C(=O)N2C(C(=O)[O-])=C(C[n+]3ccccc3)CS[C@H]12)c1csc(N)n1)C(=O)O [CAZ, ceftazidime, reference compound]

- MIC (S. aureus3137; [3]): 8 mg/L
- MIC (S. aureus 3144; [3]): 4 mg/L
- MIC (S. pneumoniae 2492; [4]): 2 mg/L
- MIC (S. pneumoniae 2406; [4]): ≤ 0.06 mg/L
- MIC (E. cloacae596; [5]): 4 mg/L
- MIC (E. cloacae 2044; [5]): 0.25 mg/L
- MIC (C. freundii 15; Citrobacter freundii, alone, read-out: MIC): 16 mg/L
- MIC (K. pneumoniae 4104; Klebsiella pneumoniae, 4104, Table 2, alone, read-out: MIC): 16 mg/L (≈ 22.3 µM)
- MIC (K. pneumoniae 4104; Klebsiella pneumoniae, 4104, Table 3, alone, read-out: MIC): 32 mg/L (≈ 44.6 µM)
- MIC (K. pneumoniae 4105; Klebsiella pneumoniae, 4105, Table 2, alone, read-out: MIC): 16 mg/L (≈ 22.3 µM)
- MIC (K. pneumoniae 4105; Klebsiella pneumoniae, 4105, Table 3, alone, read-out: MIC): 32 mg/L (≈ 44.6 µM)
- MIC (K. pneumoniae 4108; Klebsiella pneumoniae, 4108, Table 2, alone, read-out: MIC): 4 mg/L (≈ 5.57 µM)
- MIC (K. pneumoniae 4108; Klebsiella pneumoniae, 4108, Table 3, alone, read-out: MIC): 32 mg/L (≈ 44.6 µM)
- MIC (M. morganii 2409; Morganella morganii, alone, read-out: MIC): 8 mg/L
- MIC (K. pneumoniae 2689; Klebsiella pneumoniae, 2689, Table 2, alone, read-out: MIC): 8 mg/L (≈ 11.1 µM)
- MIC (K. pneumoniae 2689; Klebsiella pneumoniae, 2689, Table 3, alone, read-out: MIC): 16 mg/L (≈ 22.3 µM)
- MIC (E. coli 2671; [6]): 16 mg/L
- MIC (K. pneumoniae 2697; [7]): 4 mg/L
- MIC (E. coli 4098; [6]): 4 mg/L
- MIC (E. coli 4101; [6]): 0.5 mg/L
- MIC (E. coli 102; [6]): ≤ 0.06 mg/L
- MIC (K. baumanii 4094; alone, read-out: MIC): 16 mg/L
- MIC (P. aeruginosa 2573; Pseudomonas aeruginosa, alone, read-out: MIC): 4 mg/L
- MIC (E. cloacae 2705; [5]): > 32 mg/L
- MIC (E. cloacae 2706; [5]): > 32 mg/L
- MIC (E. cloacae 2709; [5]): 32 mg/L (≈ 44.6 µM)
- MIC (K. pneumoniae 2712; [7]): > 32 mg/L
SMILES: CC(C)(O/N=C(\C(=O)N[C@@H]1C(=O)N2C(C(=O)[O-])=C(C[n+]3ccc4c(ccn4Cc4ccc(C(=N)N)cc4)c3)CS[C@H]12)c1csc(N)n1)C(=O)O [Ex-1, (6R,7R)-7-{[(2Z)-2-(2-Amino-1,3-thiazol-4-yl)-2-{[(2-carboxypropan-2-yl)oxy]imino}acetyl]-amino}-3-{[1-(4-carbamimidoylbenzyl)-1H-pyrrolo[3,2-c]pyridin-5-ium-5-yl]methyl}-8-oxo-5-thia-1-azabicyclo[4.2.0]oct-2-ene-2-carboxylate]
